Experimental data reported in patent publication US20200069592A1, “HSP90 INHIBITOR ORAL FORMULATIONS AND RELATED METHODS” (Samus Therapeutics, Inc., priority 2017, published 2020).

Columns and labels:
[1] = Plasma pharmacokinetics after single oral dose in ORA-Plus or SyrSpend SF (Example 6), LC-MS/MS; assay type: in vivo, Sprague Dawley rats; conditions: for AUC % Extrap / Cl_F / Vz_F / AUC(0-inf) / AUC(0-t) / Cmax / Tmax / half-life: rat plasma; for % AUC0-last test vs reference: rats, ratio of group averages; for AUC(0-inf) / AUC(0-t) / Cmax / Tmax / half-life: female, rat, plasma, po
[2] = Plasma pharmacokinetics after single PO or IV administration (Example 5), LC-MS/MS; conditions: for Tmax / AUC(0-t) / Cmax: female, rat, plasma, free base; for Tmax: Tmax (hr) Mean ± StdDev; for AUC(0-t): AUC0-last (hr*ng/mL) Mean ± StdDev; for Cmax: Cmax (ng/mL) Mean ± StdDev
Method: The animals used in this study were female Sprague Dawley Rats physiologically normal. At the time of receipt, mice were 200-225 g in weight. […] Ninety-four total animals were observed thereafter. The parenteral administration is performed by tail vein injection.
Compound 2 was provided in free base form and stored at −20° C., protected from light. Compound 2 was formulated in dosage form immediately prior to use. For oral administration of Compound 2 in ORA-Plus® drinking solution, Compound 2 was suspended in drinking solution ORA-Plus® (Perrigo; Minneapolis, Minn.). First, a mortar and pestle were used to smooth out the Compound 2 powder, then a small amount of ORA-Plus® was added, and next, the mixture was triturated to a thick, smooth paste. The remainder of the ORA-Plus® was added by geometric dilution. The Compound 2 free base and ORA-Plus® mixture was dispensed in a tight, light resistant amber bottle with appropriate labeling. This mixture was shaken well before using, protected from light and kept refrigerated if dosing was delayed. For oral administration of Compound 2 in citric acid buffer with Captisol®, Compound 2 free base powder was dissolved or suspended into 30% Captisol® (Cydex Pharmaceuticals; Lawrence, Kans.) in 60 mM citrate buffer (pH˜4.2) (citric acid and sodium citrate dehydrate (Sigma-Aldrich; St. Louis Mo.)) in sterile water) to each group's working concentration. […] A magnetic stir-bar was used to mix dosing solution, followed by sonication. For intravenous administration, Compound 2 free base powder was dissolved into 15% Captisol® in 5 mM citrate buffer (pH˜4.2) to each group's working concentration. A magnetic stirbar was used to mix dosing solution, followed by sonication. IV dosing solution of Compound 2 free base was filtered with a 0.2 m PVDF filter (Pall Life Sciences; Port Washington, N.Y.) prior to administration.
Dose levels of Compound 1 were based on the free base, not the salt.
Animals were randomized using random equilibration of body weights on Day 1 into one of 19 study groups, as shown in Table 23 (Groups 1-19), with 5 animals in each group, except for the 4 animals in Group 19. Body weights were collected Days 1, 2, 3, and/or 4 to accommodate data collection of staggered groups. Gross observations of body weight were noted during the course of the study.

[3] = Tolerability (body weight, toxicity, maximum tolerated dose) in the Example 5 rat study; assay type: in vivo; conditions: free base
Method: Ninety-four total animals were observed thereafter. The parenteral administration is performed by tail vein injection.

[4] = G1: free base, 24 mg/kg single oral dose, ORA-plus
[5] = G2: free base, 48 mg/kg single oral dose, ORA-plus, n = 4
[6] = G7: free base, 24 mg/kg single oral dose, SyrSpend, n = 4
[7] = G8: free base, 48 mg/kg single oral dose, SyrSpend
[8] = Sprague Dawley, 24 mg/kg, G1: free base, 24 mg/kg single oral dose, ORA-plus
[9] = Sprague Dawley, 48 mg/kg, G2: free base, 48 mg/kg single oral dose, ORA-plus
[10] = Sprague Dawley, 48 mg/kg, G2: free base, 48 mg/kg single oral dose, ORA-plus, n = 4
[11] = Sprague-Dawley, 24 mg/kg, G7: free base, 24 mg/kg single oral dose, SyrSpend
[12] = Sprague-Dawley, 24 mg/kg, G7: free base, 24 mg/kg single oral dose, SyrSpend, n = 4
[13] = Sprague-Dawley, 48 mg/kg, G8: free base, 48 mg/kg single oral dose, SyrSpend
[14] = 24 mg/kg PO, Group 1 (ORA-plus) relative to Group 5 (citrate buffer-Captisol)
[15] = 36 mg/kg PO, Group 2 (ORA-plus) relative to Group 6 (citrate buffer-Captisol)
[16] = 48 mg/kg PO, Group 3 (ORA-plus) relative to Group 7 (citrate buffer-Captisol)
[17] = 60 mg/kg PO, Group 4 (ORA-plus) relative to Group 8 (citrate buffer-Captisol)
[18] = Sprague Dawley, po, 24 mg/kg, Group 5: 24 mg/kg PO, 60 mM Citric acid buffer + 30% Captisol
[19] = Sprague Dawley, po, 36 mg/kg, Group 2: 36 mg/kg PO, ORA-Plus
[20] = Sprague Dawley, po, 36 mg/kg, Group 6: 36 mg/kg PO, 60 mM Citric acid buffer + 30% Captisol
[21] = Sprague Dawley, po, 48 mg/kg, Group 3: 48 mg/kg PO, ORA-Plus
[22] = Sprague Dawley, po, 48 mg/kg, Group 7: 48 mg/kg PO, 60 mM Citric acid buffer + 30% Captisol
[23] = Sprague Dawley, po, 60 mg/kg, Group 4: 60 mg/kg PO, ORA-Plus
[24] = Sprague Dawley, po, 60 mg/kg, Group 8: 60 mg/kg PO, 60 mM Citric acid buffer + 30% Captisol
[25] = Sprague-Dawley, iv, 12 mg/kg, Group 9: 12 mg/kg IV, 5 mM Citric acid buffer + 15% Captisol
[26] = Sprague-Dawley, iv, 24 mg/kg, Group 10: 24 mg/kg IV, 5 mM Citric acid buffer + 15% Captisol
[27] = Sprague-Dawley, po, 24 mg/kg, Group 1: 24 mg/kg PO, ORA-Plus, single dose

With `CC(C)(C)CNCCn1c(Sc2cc3c(cc2I)OCO3)nc2c(N)ncnc21` [Compound 2] the “AUC % Extrap” value [1, 4] was 2.77 ± 0.30%, the Cl_F [1, 4] was 249.8 ± 24.2 mL/min/kg and the Vz_F [1, 4] was 50.18 ± 39.85 L/kg. The “AUC % Extrap” value [1, 5] was 6.22 ± 6.79 %, the Cl_F [1, 5] was 177.2 ± 65.5 mL/min/kg and the Vz_F [1, 5] was 38.84 ± 10.64 L/kg. The “AUC % Extrap” value [1, 6] was 6.89 ± 3.49 %, the Cl_F [1, 6] was 369.7 ± 105 mL/min/kg and the Vz_F [1, 6] was 88.96 ± 44.19 L/kg. The “AUC % Extrap” value [1, 7] was 1.71 ± 1.37%, the Cl_F [1, 7] was 136 ± 105 mL/min/kg and the Vz_F [1, 7] was 44.20 ± 37.62 L/kg. For the same compound, the “% AUC0-last test vs reference” value ([1]; Group 1 (24 mg/kg FB ORA-plus) vs Group 3 (24 mg/kg 2HCl ORA-plus)) was 121.69%, the “% AUC0-last test vs reference” value ([1]; Group 1 (24 mg/kg FB ORA-plus) vs Group 4 (48 mg/kg 2HCl ORA-plus)) was 24.79% and the “% AUC0-last test vs reference” value ([1]; Group 1 (24 mg/kg FB ORA-plus) vs Group 7 (24 mg/kg FB SyrSpend)) was 123.40%. For the same compound, the “% AUC0-last test vs reference” value ([1]; Group 1 (24 mg/kg FB ORA-plus) vs Group 9 (24 mg/kg 2HCl SyrSpend)) was 133.31%, the “% AUC0-last test vs reference” value ([1]; Group 2 (48 mg/kg FB ORA-plus) vs Group 4 (48 mg/kg 2HCl ORA-plus)) was 70.46% and the “% AUC0-last test vs reference” value ([1]; Group 2 (48 mg/kg FB ORA-plus) vs Group 8 (48 mg/kg FB SyrSpend)) was 54.72%. For the same compound, the “% AUC0-last test vs reference” value ([1]; Group 2 (48 mg/kg FB ORA-plus) vs Group 10 (48 mg/kg 2HCl SyrSpend)) was 51.93%, the “% AUC0-last test vs reference” value ([1]; Group 7 (24 mg/kg FB SyrSpend) vs Group 9 (24 mg/kg 2HCl SyrSpend)) was 108.03% and the “% AUC0-last test vs reference” value ([1]; Group 8 (48 mg/kg FB SyrSpend) vs Group 10 (48 mg/kg 2HCl SyrSpend)) was 94.91%. The AUC(0-inf) [1, 8] was 1610 ± 156 ng·h/mL, the AUC(0-t) [1, 8] was 1570 ± 152 ng·h/mL and the Cmax [1, 8] was 579 ± 108 ng/mL. The Tmax [1, 8] was 1.4 ± 0.55 h, the half-life [1, 8] was 2.36 ± 1.98 h and the AUC(0-t) [1, 9] was 4460 ± 2110 ng·h/mL. For the same compound, the Cmax [1, 9] was 803 ± 278 ng/mL, the Tmax [1, 9] was 2.8 ± 1.64 h and the AUC(0-inf) [1, 10] was 5060 ± 2070 ng·h/mL. It also gave a half-life [1, 10] of 2.61 ± 0.44 h, an AUC(0-t) [1, 11] of 1270 ± 524 ng·h/mL and a Cmax [1, 11] of 371 ± 196 ng/mL. For the same compound, the Tmax [1, 11] was 1 h, the AUC(0-inf) [1, 12] was 1180 ± 451 ng·h/mL and the half-life [1, 12] was 2.78 ± 1.13 h. The AUC(0-inf) [1, 13] was 8080 ± 4090 ng·h/mL, the AUC(0-t) [1, 13] was 8140 ± 3550 ng·h/mL and the Cmax [1, 13] was 1030 ± 421 ng/mL. The Tmax [1, 13] was 3.4 ± 1.95 h, the half-life [1, 13] was 3.56 ± 1.03 h and the “Time point up to which all animals had quantifiable plasma levels” value ([1]; single oral dose, free base or 2HCl, ORA-Plus or SyrSpend) was ≥ 8 h. The “% AUC0-last (hr*ng/mL) ORA vs Citrate Mean ± StdDev” value (shortened to “% AUC0-last (hr*ng/mL) ORA”) [2, 14] was 48.63 ± 15.03%, the “% Cmax (ng/mL) ORA vs Citrate Mean ± StdDev” value (“% Cmax (ng/mL) ORA” below) [2, 14] was 47.65 ± 16.52% and the “% AUC0-last (hr*ng/mL) ORA” value [2, 15] was 91.18 +/− 72.46%. For the same compound, the “% Cmax (ng/mL) ORA” value [2, 15] was 89.97 +/− 82.63%, the “% AUC0-last (hr*ng/mL) ORA” value [2, 16] was 94.75 +/− 64.83% and the “% Cmax (ng/mL) ORA” value [2, 16] was 99.04 +/− 80.01%. The “% AUC0-last (hr*ng/mL) ORA” value [2, 17] was 75.93 +/− 63.12%, the “% Cmax (ng/mL) ORA” value [2, 17] was 83.99 +/− 73.13% and the Tmax ([2]; Sprague Dawley, iv, 12 mg/kg, Group 9: 12 mg/kg IV, 5 mM Citric acid buffer + 15% Captisol) was 0.25 h. For the same compound, the AUC(0-t) [2, 18] was 2010 ± 176 ng·h/mL, the Cmax [2, 18] was 685 ± 109 ng/mL and the Tmax [2, 18] was 1.8 ± 0.45 h. The AUC(0-t) [2, 19] was 2680 ± 811 ng·h/mL, the AUC(0-t) [2, 20] was 2940 ± 1570 ng·h/mL and the Cmax [2, 19] was 747 ± 238 ng/mL. The Cmax [2, 20] was 831 ± 618 ng/mL, the Tmax [2, 19] was 1.5 ± 1.41 h and the Tmax [2, 20] was 2.4 ± 2.07 h. The AUC(0-t) [2, 21] was 5220 ± 2760 ng·h/mL, the AUC(0-t) [2, 22] was 5510 ± 2590 ng·h/mL and the Cmax [2, 21] was 1240 ± 519 ng/mL. For the same compound, the Cmax [2, 22] was 1400 ± 626 ng/mL, the Tmax [2, 21] was 2.7 ± 1.79 h and the Tmax [2, 22] was 1.4 ± 0.55 h. For the same compound, the AUC(0-t) [2, 23] was 3560 ± 906 ng·h/mL, the AUC(0-t) [2, 24] was 4750 ± 3070 ng·h/mL and the Cmax [2, 23] was 909 ± 302 ng/mL. For the same compound, the Cmax [2, 24] was 1080 ± 584 ng/mL, the Tmax [2, 23] was 3 ± 2.74 h and the Tmax [2, 24] was 4.4 ± 1.67 h. For the same compound, the AUC(0-t) [2, 25] was 3390 ± 402 ng·h/mL, the Cmax [2, 25] was 2360 ± 92.7 ng/mL and the AUC(0-t) [2, 26] was 7500 ± 552 ng·h/mL. The Cmax [2, 26] was 5110 ± 416 ng/mL, the Tmax [2, 26] was 0.25 h and the AUC(0-t) [2, 27] was 975 ± 304 ng·h/mL. The Cmax [2, 27] was 321 ± 111 ng/mL, the Tmax [2, 27] was 0.9 ± 0.22 h and the MTD ([3]; female, Sprague Dawley, rat, in vivo, iv, intravenously administered, rats, read-out: Maximum tolerated dose) was 24 mg/kg. The “Body weight and toxicity” value ([3]; higher oral doses (above 24 mg/kg), data not shown) was “minimal effects on body weight and limited toxicity”.
